One assay concerns LCC9 cells. The assay can be described thus: cell proliferation assay (cell counts days 1, 3, 5), LCC9. The settings on record: for LCC9 cell proliferation, compound combined with Tam: compound plus Tam (1 μM) compared with compound alone. The format is cell-based, human. The protocol:
Starting on day 1, cells were refed daily with fresh medium (DMEM plus 5% CSS) containing the indicated agent. In panel F, the cells were refed with medium also containing ER-siRNA or control-siRNA (100 nM) at the indicated times. Wells were counted on days 1, 3, and 5 to determine cell numbers. Values are means ± SEMs of triplicate wells. The data shown in each panel are representative of three independent experiments.
Assays were performed using as the growth medium phenol red-free DMEM containing 5% charcoal-stripped serum. Briefly, proliferating cells were harvested using trypsin, counted, inoculated into 12-well dishes at 1 × 10^4 cells per well on day 0 and allowed to attach and recover for 24 hr. The cells were then treated with the indicated agents for up to five days, with daily refeeding with fresh medium and agents. Triplicate wells were counted by Coulter Counter on days 1, 3, and 5. For experiments using siRNAs, cells were treated with the indicated siRNA (100 nM) starting on day -2, and fresh siRNA was added on days 0, 2, and 4.

The target of a further assay is T1, BRCA1: ER complex (Homo sapiens, UniProt P03372).
T1 construct: endogenous in cells; host or cells: MCF-7
The assay can be described thus: immunoprecipitation-Western blotting of BRCA1:ER complex in MCF-7 cells. The format is cell-based. The protocol: Figure 7 Compound 4631-P/1 disrupts the BRCA1/ER interaction in MCF-7 cells A., B. MCF-7 cells were incubated with the indicated with compound 4631-P/1 (1 or 20 μM) or vehicle only (DMSO) plus E2 (10 nM) for 24 hr; and the cells were harvested for immunoprecipitation of ER (A) or BRCA1 (B), followed by Western blotting for ER and BRCA1. As a negative control, cells treated with vehicle (DMSO) only were subjected to an IP with normal IgG. C. Unprecipitated lysates from cells treated as in panel A were subjected to Western blotting to detect BRCA1, ER, or actin (loading control). The data shown in each panel are representative of three independent experiments.
After the indicated treatments, cells were harvested, and whole cell extracts were prepared in IP buffer [10 mM Tris-HCl (pH 7.4), 150 mM NaCl, 1 mM EDTA, 1 mM EGTA, 1% Triton X-100, 0.5% IGEPAL CA-630 (Sigma), 10% glycerol, 1 mM sodium orthovanadate, and protease inhibitor cocktail (Santa Cruz)] [11, 18]. Each IP was carried out using 2-μg antibody and 500-μg extract protein. […] For each experiment, a control IP using an equal quantity of normal mouse or rabbit IgG (Santa Cruz) was carried out. […]

A further assay deals with T2, ER Lys449Ala (Homo sapiens, UniProt P03372, K449A).
T2 construct: expressed in transfected cells; host or cells: MDA-MB-231
The assay can be described thus: ER mutation analysis, ERE-TK-Luc reporter in transfected MDA-MB-231 cells. The format is cell-based. The note with it: MDA-MB-231 transfected with mutant ER, E2 10 nM, 24 hr. An excerpt:
(§1) B., C. Panels B and C show a comparison of the ER interaction of one of our original series of compounds (A7) (B) and one new compounds (48693-K/1) (C). ER is represented by gray ribbon and its residues interacting with the compounds are drawn with wireframe and labeled. […] The hydrogen bond interaction with ARG 394 is shown in green line. […] The cells were harvested for luciferase assays. Luciferase values are expressed as a percent of the +E2 vehicle control and are means ± SEMs of four wells. The data shown in panels D to G are representative of three independent experiments.
(§2) Subconfluent cells in 24-well dishes were transfected overnight with 0.25 μg of each indicated vector plus the ERE-TK-Luc reporter in serum-free DMEM containing Lipofectamine2000 (Life Technologies, Washington, DC). Total transfected DNA was kept constant by addition of control vector. The cells were washed, incubated in phenol red-free DMEM containing 5% charcoal-stripped serum (obtained from the Tissue Culture Shared Resource) (0.2 ml/well) ± E2 (10 nM) ± the indicated compound for 24-hr, and harvested for luciferase assays. For each assay condition was tested in quadrupicate. To monitor the transfection efficiency, cultures were co-transfected with plasmid pRSV-β-gal (Promega, Madison, WI) to visualize transfected cells by X-gal staining.

Another assay concerns the target T3, ER Ile326Ala (Homo sapiens, UniProt P03372, I326A).
T3 construct: expressed in transfected cells; host or cells: MDA-MB-231
The description is as above. The format is cell-based. The settings on record: MDA-MB-231 transfected with mutant ER, E2 10 nM, 24 hr.
From the text: as §1, §2

For another assay, the target named is T4, ER Ile386Ala (Homo sapiens, UniProt P03372, I386A).
T4 construct: expressed in transfected cells; host or cells: MDA-MB-231
The description is as above. The note with it: MDA-MB-231 transfected with mutant ER, E2 10 nM, 24 hr. The format is cell-based.
From the text: as §1, §2

A further assay deals with T5, ER His356Ala (Homo sapiens, UniProt P03372, H356A).
T5 construct: expressed in transfected cells; host or cells: MDA-MB-231
Described as above. The format is cell-based. The settings on record: MDA-MB-231 transfected with mutant ER, E2 10 nM, 24 hr.
From the text: as §1, §2

Another assay addresses T6, ER Glu353Ala (Homo sapiens, UniProt P03372, E353A).
T6 construct: expressed in transfected cells; host or cells: MDA-MB-231
The assay is described as above. The format is cell-based. The settings on record: MDA-MB-231 transfected with mutant ER, E2 10 nM, 24 hr.
From the text: as §1, §2

In a further assay the target is T7, ER Glu323Ala (Homo sapiens, UniProt P03372, E323A).
T7 construct: expressed in transfected cells; host or cells: MDA-MB-231
The description is as above. The format is cell-based. The settings on record: MDA-MB-231 transfected with mutant ER, E2 10 nM, 24 hr.
From the text: as §1, §2

For the next assay, the target named is T8, ER Trp393Ala (Homo sapiens, UniProt P03372, W393A).
T8 construct: expressed in transfected cells; host or cells: MDA-MB-231
The description is as above. The format is cell-based. The settings on record: MDA-MB-231 transfected with mutant ER, E2 10 nM, 24 hr.
From the text: as §1, §2

Another assay concerns the target T9, Wild-type ER (Homo sapiens, UniProt P03372).
T9 construct: expressed in transfected cells; host or cells: MDA-MB-231
Described as above. The format is cell-based. The note with it: MDA-MB-231 transfected with wtER, E2 10 nM, 24 hr.
From the text: as §1, §2

For the next assay, the target named is T10, ER Arg394Ala (Homo sapiens, UniProt P03372, R394A).
T10 construct: expressed in transfected cells; host or cells: MDA-MB-231
Described as above. The format is cell-based. The note with it: MDA-MB-231 transfected with mutant ER, E2 10 nM, 24 hr.
From the text: as §1, §2

The structures appear in SMILES notation. A value given as a limit tells only on which side of the number the result lay.

What is called IC50 is the midpoint of a concentration-inhibition curve. A low value points to greater potency in that assay.

T1 sequence (P03372 whole entry, one chain of several): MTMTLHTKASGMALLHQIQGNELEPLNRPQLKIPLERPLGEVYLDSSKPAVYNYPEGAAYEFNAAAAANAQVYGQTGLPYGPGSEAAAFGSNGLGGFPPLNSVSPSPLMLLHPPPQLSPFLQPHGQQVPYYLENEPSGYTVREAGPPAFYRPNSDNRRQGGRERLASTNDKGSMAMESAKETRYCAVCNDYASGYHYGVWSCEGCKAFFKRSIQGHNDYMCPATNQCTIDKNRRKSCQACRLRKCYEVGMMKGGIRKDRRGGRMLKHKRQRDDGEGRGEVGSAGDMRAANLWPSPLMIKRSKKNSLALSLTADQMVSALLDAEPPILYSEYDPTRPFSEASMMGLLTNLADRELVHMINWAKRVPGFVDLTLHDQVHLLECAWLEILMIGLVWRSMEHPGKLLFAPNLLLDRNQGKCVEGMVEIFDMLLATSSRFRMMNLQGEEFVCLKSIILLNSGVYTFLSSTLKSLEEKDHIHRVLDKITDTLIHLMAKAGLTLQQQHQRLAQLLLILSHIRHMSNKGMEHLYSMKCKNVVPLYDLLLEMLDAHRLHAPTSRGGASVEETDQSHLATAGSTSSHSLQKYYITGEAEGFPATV
T9 sequence (P03372 whole entry): as the sequence (P03372 whole entry, one chain of several) above
T7 sequence (P03372 whole entry E323A): as the sequence (P03372 whole entry, one chain of several) above, with E323A counted along it
T8 sequence (P03372 whole entry W393A): as the sequence (P03372 whole entry, one chain of several) above, with W393A counted along it
T3 sequence (P03372 whole entry I326A): as the sequence (P03372 whole entry, one chain of several) above, with I326A counted along it
T10 sequence (P03372 whole entry R394A): as the sequence (P03372 whole entry, one chain of several) above, with R394A counted along it
T6 sequence (P03372 whole entry E353A): as the sequence (P03372 whole entry, one chain of several) above, with E353A counted along it
T4 sequence (P03372 whole entry I386A): as the sequence (P03372 whole entry, one chain of several) above, with I386A counted along it
T5 sequence (P03372 whole entry H356A): as the sequence (P03372 whole entry, one chain of several) above, with H356A counted along it
T2 sequence (P03372 whole entry K449A): as the sequence (P03372 whole entry, one chain of several) above, with K449A counted along it

As for `O=C(c1cc(Br)ccc1O)c1cc(Br)ccc1O` [4631-P/1], the “effect on LCC9 cell growth, single agent” value with LCC9 cells (DMEM + 5% charcoal-stripped serum, up to 5 days, 4631-P/1 at 1 μM) was “inhibited LCC9 cell growth”. Moreover, the “LCC9 cell proliferation, compound combined with Tam” value in the assay on LCC9 cells is “greater inhibition of cell proliferation than 4631-P/1 alone”. On BRCA1: ER complex (MCF-7, E2 10 nM, compound 0, 1, 20 μM, 24 hr, IP-Western), the “dissociation of the BRCA1: ER complex” value was “concentration-dependent dissociation of ER and BRCA1”. For the same compound, the “effect on total levels of ER or BRCA1” value at BRCA1: ER complex (MCF-7, Western blotting of non-precipitated lysates) is “no effect”.

For `O=C(CC(c1ccccc1)N1CCCCC1)c1ccccc1` (stereo not drawn) [35446-L/1, 1,3-diphenyl-3-(piperidin-1-yl)propan-1-one], the IC50 at ER Lys449Ala was more than 15 µM; at ER Ile326Ala, 4 µM; against ER Ile386Ala it was 4 µM; against ER His356Ala it was 0.8 µM; at ER Glu353Ala, more than 10 µM; on ER Glu323Ala it was 0.9 µM. In addition, the IC50 on ER Trp393Ala is more than 15 µM; against Wild-type ER, 0.8 µM; on ER Arg394Ala, more than 15 µM. In addition, the “LCC9 cell proliferation in ER-siRNA-treated cells” value with LCC9 cells (ER-siRNA 100 nM) was “little effect on cell proliferation”. In addition, the “LCC9 cell proliferation, compound combined with Tam” value in the assay on LCC9 cells is “greater inhibition of LCC9 proliferation than did 35466-L/1 alone”.

The record behind these values is article PMC4747340, “A new class of small molecule estrogen receptor-alpha antagonists that overcome anti-estrogen resistance” (Oncotarget, 2015).
